Data taken from the supplement of paper PMC10627819.

Assays:
B. subtilis 168 [1] = test: fitness (endpoint OD595 vs no drug) (fraction); higher = more growth
In short: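 Fitness was defined as the optical density at the transition into stationary phase relative to the robust mean of no-drug control wells. Values were capped at 1. Cultures were started at OD595 0.01 in 384-well plates (30 µl, or 55 µl for S. pneumoniae) in TSB, LB Lennox or CY at 37 °C. OD595 was recorded every 30 min over 14 h, with the first reading subtracted as background.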

B. subtilis 168 [2] = test: Bliss interaction score (quartile over a dose matrix) (fitness difference); higher = more antagonism (negative = synergy)
In short: (§1)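 Combination data were used to infer fitness under each single drug. Fitness is the OD595 at entry into stationary phase divided by the robust mean of the plate's no-drug wells, with a cap of 1. The Bliss score is the observed minus the expected product fitness, summarised by quartiles over technical, biological and donor/recipient replicates.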

S. aureus DSM 20231 = test: as above
In short: as §1

S. aureus Newman = test: as above
In short: as §1

S. pneumoniae D39V = test: as above
In short: as §1
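Wherever Bliss interaction score (quartile over a dose matrix) is given: first quartile when negative (synergy) and third quartile when positive (antagonism).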

CO/N=C(\C(=O)N[C@@H]1C(=O)N2C(C(=O)O)=C(COC(C)=O)CS[C@H]12)c1csc(N)n1 [Cefotaxime] + CO[C@@H]1[C@@H](OC(N)=O)[C@@H](O)[C@H](Oc2ccc3c(O)c(NC(=O)c4ccc(O)c(CC=C(C)C)c4)c(=O)oc3c2C)OC1(C)C [Novobiocin]
fitness, B. subtilis 168 [1], one replicate
Conditions | first compound 0.00775 µg/mL | first compound 0.0155 µg/mL | first compound 0.031 µg/mL | first compound 0.0625 µg/mL | first compound 0.125 µg/mL | first compound 0.25 µg/mL
partner 0.05 µg/mL | 0.908 | 0.735 | 0.565 | – | – | –
partner 0.1 µg/mL | 0.955 | 0.715 | 0.563 | – | – | –
partner 0.125 µg/mL | – | – | – | 0.291 | 0.169 | 0.117
partner 0.2 µg/mL | 0.945 | 0.676 | 0.51 | – | – | –
partner 0.25 µg/mL | – | – | – | 0.112 | 0.0673 | 0.0477
partner 0.5 µg/mL | – | – | – | 0.0592 | 0.0517 | 0.0477

fitness, B. subtilis 168 [1]
Conditions | first compound 0.5 µg/mL | first compound 1 µg/mL | first compound 2 µg/mL
partner 0.0125 µg/mL | 0.27 | 0.122 | 0.127
partner 0.025 µg/mL | 0.275 | 0.135 | 0.131
partner 0.05 µg/mL | 0.276 | 0.153 | 0.142

Conditions | Bliss interaction score
B. subtilis 168 [2] | 0.097
S. aureus DSM 20231 | 0.0739
S. aureus Newman | 0.0646
S. pneumoniae D39V | -0.126

CO/N=C(\C(=O)N[C@@H]1C(=O)N2C(C(=O)O)=C(COC(N)=O)CS[C@H]12)c1ccco1 [Cefuroxime] + CC(=O)NC[C@H]1CN(c2ccc(N3CCOCC3)c(F)c2)C(=O)O1 [Linezolid]
fitness, B. subtilis 168 [1]
Conditions | first compound 0.04875 µg/mL | first compound 0.0975 µg/mL | first compound 0.195 µg/mL
partner 0.125 µg/mL | 0.532 | 0.526 | 0.423
partner 0.25 µg/mL | 0.293 | 0.261 | 0.0774
partner 0.5 µg/mL | 0.103 | 0.0891 | 0.0749

fitness, B. subtilis 168 [1], one replicate
Conditions | first compound 0.195 µg/mL | first compound 0.39 µg/mL | first compound 0.78 µg/mL | first compound 1.562 µg/mL | first compound 3.125 µg/mL | first compound 6.25 µg/mL
partner 0.0625 µg/mL | 0.379 | 0.312 | 0.235 | – | – | –
partner 0.125 µg/mL | – | 0.227 | 0.14 | 0.331 | 0.384 | 0.308
partner 0.25 µg/mL | – | 0.0397 | 0.0222 | 0.0445 | 0.0527 | 0.0345
partner 0.5 µg/mL | – | – | – | 0.0242 | 0.0246 | 0.0074

Conditions | Bliss interaction score
B. subtilis 168 [2] | 0.139
S. aureus DSM 20231 | -0.208
S. aureus Newman | 0.0749
S. pneumoniae D39V | 0.079

CO/N=C(\C(=O)N[C@@H]1C(=O)N2C(C(=O)O)=C(COC(N)=O)CS[C@H]12)c1ccco1 [Cefuroxime] + CCC(C)C1C(=O)NC(=C)C(=O)NC(C(=O)NC(CSCC(C(=O)N1)NC(=O)/C(=C/C)/NC(=O)C(C(C)CC)N)C(=O)NC2C(SCC(NC(=O)CNC(=O)C3CCCN3C2=O)C(=O)NC(CCCCN)C(=O)NC4C(SCC(NC(=O)CNC(=O)C(NC(=O)C(NC(=O)C(NC(=O)CNC4=O)C)CC(C)C)CCSC)C(=O)NC(CC(=O)N)C(=O)NC(CCSC)C(=O)NC(CCCCN)C(=O)NC5C(SCC6C(=O)NC(C(=O)NC(CSC(C(C(=O)N6)NC(=O)C(NC5=O)C)C)C(=O)NC(CO)C(=O)NC(C(C)CC)C(=O)NC(CC7=CN=CN7)C(=O)NC(C(C)C)C(=O)NC(=C)C(=O)NC(CCCCN)C(=O)O)CC8=CN=CN8)C)C)C)CC(C)C [Nisin]
B. subtilis 168 [1], one replicate, main component drawn
Conditions | fitness
first compound 0.04875 µg/mL, partner 0.5 µg/mL | 0.608
first compound 0.04875 µg/mL, partner 1 µg/mL | 0.529
first compound 0.04875 µg/mL, partner 2 µg/mL | 0.417
first compound 0.04875 µg/mL, partner 4 µg/mL | 0.0351
first compound 0.04875 µg/mL, partner 8 µg/mL | 0.0258
first compound 0.04875 µg/mL, partner 16 µg/mL | 0.0482
first compound 0.0975 µg/mL, partner 0.5 µg/mL | 0.471
first compound 0.0975 µg/mL, partner 1 µg/mL | 0.427
first compound 0.0975 µg/mL, partner 2 µg/mL | 0.261
first compound 0.0975 µg/mL, partner 4 µg/mL | 0.032
first compound 0.0975 µg/mL, partner 8 µg/mL | 0.0195
first compound 0.0975 µg/mL, partner 16 µg/mL | 0.02
first compound 0.195 µg/mL, partner 0.5 µg/mL | 0.385
first compound 0.195 µg/mL, partner 1 µg/mL | 0.382
first compound 0.195 µg/mL, partner 1.25 µg/mL | 0.173
first compound 0.195 µg/mL, partner 1.6 µg/mL | 0.0755
first compound 0.195 µg/mL, partner 2 µg/mL | 0.278
first compound 0.195 µg/mL, partner 2.5 µg/mL | 0.0381
first compound 0.195 µg/mL, partner 3.2 µg/mL | 0.0377
first compound 0.195 µg/mL, partner 4 µg/mL | 0.0274
first compound 0.195 µg/mL, partner 5 µg/mL | 0.0619
first compound 0.195 µg/mL, partner 6.4 µg/mL | 0.0264
first compound 0.195 µg/mL, partner 8 µg/mL | 0.0204
first compound 0.195 µg/mL, partner 16 µg/mL | 0.0103
first compound 0.39 µg/mL, partner 1.25 µg/mL | 0.086
first compound 0.39 µg/mL, partner 1.6 µg/mL | 0.0435
first compound 0.39 µg/mL, partner 2.5 µg/mL | 0.0309
first compound 0.39 µg/mL, partner 3.2 µg/mL | 0.0108
first compound 0.39 µg/mL, partner 5 µg/mL | 0.0219
first compound 0.39 µg/mL, partner 6.4 µg/mL | 0.0352
first compound 0.78 µg/mL, partner 1.25 µg/mL | 0.0678
first compound 0.78 µg/mL, partner 1.6 µg/mL | 0.0281
first compound 0.78 µg/mL, partner 2.5 µg/mL | 0.0242
first compound 0.78 µg/mL, partner 3.2 µg/mL | 0.0058
first compound 0.78 µg/mL, partner 5 µg/mL | 0.0235
first compound 0.78 µg/mL, partner 6.4 µg/mL | 0.0238
first compound 1.562 µg/mL, partner 0.5 µg/mL | 0.257
first compound 1.562 µg/mL, partner 1 µg/mL | 0.0875
first compound 1.562 µg/mL, partner 2 µg/mL | 0.038
first compound 3.125 µg/mL, partner 0.5 µg/mL | 0.173
first compound 3.125 µg/mL, partner 1 µg/mL | 0.0836
first compound 3.125 µg/mL, partner 2 µg/mL | 0.02
first compound 6.25 µg/mL, partner 0.5 µg/mL | 0.105
first compound 6.25 µg/mL, partner 1 µg/mL | 0.0185
first compound 6.25 µg/mL, partner 2 µg/mL | 0.0198

main component drawn
Conditions | Bliss interaction score
B. subtilis 168 [2] | -0.0638
S. aureus DSM 20231 | -0.109
S. aureus Newman | -0.331
S. pneumoniae D39V | 0.0468
